The results in this text go back to PubChem BioAssay (NCI).

Test systems include 786-0 renal; ACHN renal; EKVX NSCLC; HCC-2998 colon; HS 578T breast; K-562 leukemia; RPMI-8226 leukemia; RXF 393 renal; SK-MEL-2 melanoma; SK-MEL-5 melanoma.
What all share (assay): NCI anticancer screen, dose series, 48 h

Where “and” joins values, the source holds several entries; their conditions need not be identical. Identical values can stand only once.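 Interpolation was linear, between the two tested concentrations surrounding the appropriate level; five concentrations were tested over 48 hours in 96-well plates. GI50 marks 50% less growth. Definition used: TGI = concentration required for complete inhibition of growth.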

Turning to `Cc1ccc(NC(=O)N2CCCCC2)cc1[N+](=O)[O-]`, the GI50 with 786-0 renal, with ACHN renal, in the experiment with EKVX NSCLC, with HCC-2998 colon, in the experiment with HS 578T breast and in the experiment on K-562 leukemia was over 100 µM each time. Further, the GI50 in the experiment on RPMI-8226 leukemia was 90.1 µM; in the experiment with RXF 393 renal it was over 100 µM; with SK-MEL-2 melanoma it was over 100 µM; in the experiment on SK-MEL-5 melanoma, over 100 µM. For the same compound, the TGI with 786-0 renal, in the experiment with ACHN renal, in the experiment with EKVX NSCLC, with HCC-2998 colon, in the experiment on HS 578T breast and in the experiment on K-562 leukemia was over 100 µM each time. Moreover, the TGI in the experiment with RPMI-8226 leukemia, with RXF 393 renal, in the experiment with SK-MEL-2 melanoma and with SK-MEL-5 melanoma was over 100 µM each time.

For `CCOc1ccc(NC(=O)c2cc3ccccc3cc2O)cc1`, the GI50 with 786-0 renal was 28.4 µM; with ACHN renal, 49.9 µM; in the experiment on EKVX NSCLC it was over 100 µM; in the experiment on HCC-2998 colon, over 100 µM; in the experiment with HS 578T breast, 59.8 µM; in the experiment on K-562 leukemia it was 52.5 µM. In addition, the GI50 with RPMI-8226 leukemia is 38.9 µM; in the experiment on RXF 393 renal, 19 µM; with SK-MEL-2 melanoma it was 76.7 µM; in the experiment with SK-MEL-5 melanoma, over 100 µM. For the same compound, the TGI in the experiment on 786-0 renal was 74.5 µM; in the experiment with ACHN renal it was over 100 µM; in the experiment with EKVX NSCLC it was over 100 µM; in the experiment with HCC-2998 colon, over 100 µM; in the experiment on HS 578T breast it was over 100 µM; in the experiment with K-562 leukemia it was over 100 µM. Further, the TGI is over 100 µM with RPMI-8226 leukemia, 40.2 µM with RXF 393 renal, over 100 µM in the experiment with SK-MEL-2 melanoma and over 100 µM with SK-MEL-5 melanoma.

For the compound `CC(C)c1ccc(/C=N/N=C(N)N)cc1`, the GI50 in the experiment with 786-0 renal was 12.4 µM; with ACHN renal, 11.7 µM; with EKVX NSCLC it was 5.33 µM; in the experiment on HCC-2998 colon it was 2.04 µM; in the experiment on HS 578T breast it was 11.5 µM; in the experiment with K-562 leukemia, 4.16 µM. The GI50 in the experiment on RPMI-8226 leukemia is 3.6 µM; with RXF 393 renal, 3.8 µM; in the experiment on SK-MEL-2 melanoma it was 2.64 µM; in the experiment on SK-MEL-5 melanoma, 2.54 µM. The TGI was found to be 27.3 µM in the experiment on 786-0 renal; 25.4 µM in the experiment with ACHN renal; 24.4 µM with EKVX NSCLC; 4.78 µM in the experiment on HCC-2998 colon; 36.5 µM with HS 578T breast; 16.2 µM in the experiment with K-562 leukemia. Besides, the TGI with RPMI-8226 leukemia was 16.4 µM; in the experiment with RXF 393 renal, 16.6 µM; in the experiment on SK-MEL-2 melanoma, 5.61 µM; in the experiment with SK-MEL-5 melanoma, 8.16 µM.

Regarding `Clc1ccc(N/N=C(\c2ccccc2)c2ccccn2)nc1`, the GI50 was 0.291 µM in the experiment on 786-0 renal; 0.0619 µM in the experiment on ACHN renal; 0.0726 µM in the experiment on EKVX NSCLC; 0.341 µM in the experiment on HCC-2998 colon; 0.781 µM with HS 578T breast; 0.0406 µM in the experiment with K-562 leukemia. The GI50 in the experiment on RPMI-8226 leukemia is 0.128 µM; in the experiment on RXF 393 renal it was 0.275 µM; in the experiment on SK-MEL-2 melanoma, 0.796 µM; with SK-MEL-5 melanoma, 0.32 µM. For the same compound, the TGI in the experiment on 786-0 renal was 15.8 µM; in the experiment on ACHN renal, > 36.8 µM and 12.5 µM; with HCC-2998 colon, > 48.4 µM and 21.1 µM; in the experiment with K-562 leukemia it was over 100 µM; in the experiment on RPMI-8226 leukemia, over 52.6 µM; in the experiment with RXF 393 renal, 7.38 µM and 28.5 µM. The TGI in the experiment with SK-MEL-2 melanoma is > 95.1 µM and 32.3 µM.

As to `OCc1ncc(-c2ccccc2)s1`, the GI50 in the experiment with 786-0 renal, with ACHN renal, in the experiment on EKVX NSCLC, with HCC-2998 colon, in the experiment with HS 578T breast and with K-562 leukemia was over 100 µM each time. For the same compound, the GI50 in the experiment with RPMI-8226 leukemia, in the experiment on RXF 393 renal, in the experiment on SK-MEL-2 melanoma and in the experiment on SK-MEL-5 melanoma was over 100 µM throughout. Besides, the TGI in the experiment with 786-0 renal, in the experiment with ACHN renal, in the experiment on EKVX NSCLC, with HCC-2998 colon, in the experiment with HS 578T breast and in the experiment with K-562 leukemia was over 100 µM throughout. The TGI in the experiment with RPMI-8226 leukemia, with RXF 393 renal, with SK-MEL-2 melanoma and in the experiment with SK-MEL-5 melanoma was over 100 µM each time.

For `O=C(c1ccccc1)c1ccc(O)c2ncccc12`, the GI50 was 5.09 µM in the experiment on 786-0 renal; 3.46 µM in the experiment on ACHN renal; 3.09 µM in the experiment with EKVX NSCLC; 16.7 µM in the experiment with HCC-2998 colon; 5.08 µM with HS 578T breast; 3.4 µM with K-562 leukemia. In addition, the GI50 in the experiment on RPMI-8226 leukemia is 4.25 µM; in the experiment on RXF 393 renal it was 3.18 µM; in the experiment on SK-MEL-2 melanoma it was 12 µM; with SK-MEL-5 melanoma, 4.72 µM. The TGI was 26.5 µM with 786-0 renal; 15.7 µM in the experiment on ACHN renal; 56.1 µM in the experiment on EKVX NSCLC; 41.1 µM in the experiment with HCC-2998 colon; 72 µM with HS 578T breast; over 100 µM in the experiment with K-562 leukemia. In addition, the TGI with RPMI-8226 leukemia was found to be 39.1 µM; in the experiment with RXF 393 renal it was 19.6 µM; with SK-MEL-2 melanoma it was 43.3 µM; in the experiment on SK-MEL-5 melanoma it was 26.6 µM.

Turning to `CC(=O)[O][Hg][CH2]C1(C)COC(C)([CH2][Hg][O]C(C)=O)CO1` (configuration not stated), the GI50 in the experiment with 786-0 renal is 16.8 µM; in the experiment on ACHN renal it was 1.5 µM; with EKVX NSCLC it was 18.4 µM; in the experiment with HCC-2998 colon, 15.7 µM; in the experiment on HS 578T breast, 2.61 µM; in the experiment on K-562 leukemia it was 0.607 µM. In addition, the GI50 with RPMI-8226 leukemia was 1.17 µM; in the experiment with RXF 393 renal it was 1.45 µM; in the experiment with SK-MEL-2 melanoma, 4.31 µM; in the experiment on SK-MEL-5 melanoma, 13.4 µM. Moreover, the TGI came out at 31 µM in the experiment with 786-0 renal; 2.84 µM in the experiment on ACHN renal; 36.3 µM in the experiment on EKVX NSCLC; 30.2 µM in the experiment on HCC-2998 colon; 16 µM in the experiment with HS 578T breast; 2.71 µM in the experiment on K-562 leukemia. Moreover, the TGI came out at 8.29 µM in the experiment with RPMI-8226 leukemia, 7.08 µM in the experiment on RXF 393 renal, 16.4 µM in the experiment with SK-MEL-2 melanoma and 26.5 µM in the experiment with SK-MEL-5 melanoma.

As to `CNC(C)[C@H]1CCC2C3CCC4C[C@@H](N(C)C(=O)c5ccccc5)CC[C@]4(C)C3CC[C@@]21C` (some centres not stated), the GI50 is 1.3 µM in the experiment on 786-0 renal; 2.37 µM with ACHN renal; 0.613 µM in the experiment on EKVX NSCLC; 1.63 µM in the experiment on HCC-2998 colon; 1.34 µM in the experiment with HS 578T breast; 0.351 µM in the experiment on K-562 leukemia. Also, the GI50 is 0.426 µM in the experiment with RPMI-8226 leukemia, 1.73 µM in the experiment on RXF 393 renal, 2.6 µM with SK-MEL-2 melanoma and 0.613 µM in the experiment with SK-MEL-5 melanoma. Besides, the TGI came out at 2.82 µM in the experiment with 786-0 renal; 9.59 µM in the experiment with ACHN renal; 6.3 µM in the experiment on EKVX NSCLC; 4.8 µM in the experiment on HCC-2998 colon; 3.94 µM in the experiment with HS 578T breast; 2.46 µM in the experiment with K-562 leukemia. For the same compound, the TGI came out at 3.3 µM with RPMI-8226 leukemia, 4.26 µM in the experiment on RXF 393 renal, 5.4 µM in the experiment on SK-MEL-2 melanoma and 2.02 µM in the experiment with SK-MEL-5 melanoma.
